What was measured:
Assay type in all cases: ADME, organism-based
[1] = Tmax in male ICR mouse at 25 mg/kg, po measured upto 24 hrs by LC-MS/MS analysis; conditions: in vivo
[2] = Half life in male ICR mouse at 5 mg/kg, iv measured upto 24 hrs by LC-MS/MS analysis; conditions: in vivo
[3] = Observed clearance in male ICR mouse at 5 mg/kg, iv measured upto 24 hrs by LC-MS/MS analysis; conditions: in vivo
[4] = Drug concentration in BALB/c mouse plasma at 100 mg/kg, sc measured after 4 hrs by LC-MS/MS analysis
[5] = Drug concentration in BALB/c mouse plasma at 100 mg/kg, sc measured after 1 hrs by LC-MS/MS analysis
[6] = Cmax in male ICR mouse at 25 mg/kg, po measured upto 24 hrs by LC-MS/MS analysis; conditions: in vivo
[7] = Half life in male ICR mouse at 25 mg/kg, po measured upto 24 hrs by LC-MS/MS analysis; conditions: in vivo
[8] = AUC last in male ICR mouse at 5 mg/kg, iv measured upto 24 hrs by LC-MS/MS analysis; conditions: in vivo
[9] = Drug concentration in BALB/c mouse plasma at 100 mg/kg, sc measured after 0.5 hrs by LC-MS/MS analysis
[10] = Observed MRT infinity in male ICR mouse at 5 mg/kg, iv measured upto 24 hrs by LC-MS/MS analysis; conditions: in vivo
[11] = AUC last in male ICR mouse at 25 mg/kg, po measured upto 24 hrs by LC-MS/MS analysis; conditions: in vivo
[12] = Observed volume of distribution at steady state in male ICR mouse at 5 mg/kg, iv measured upto 24 hrs by LC-MS/MS analysis; conditions: in vivo, read-out: Vdss
[13] = Drug concentration in BALB/c mouse plasma at 100 mg/kg, sc measured after 2 hrs by LC-MS/MS analysis
[14] = Observed AUC infinity in male ICR mouse at 5 mg/kg, iv measured upto 24 hrs by LC-MS/MS analysis; conditions: in vivo
[15] = Observed AUC infinity in male ICR mouse at 25 mg/kg, po measured upto 24 hrs by LC-MS/MS analysis; conditions: in vivo
[16] = Observed MRT infinity in male ICR mouse at 25 mg/kg, po measured upto 24 hrs by LC-MS/MS analysis; conditions: in vivo

With `O=c1ccc2c(N3C[C@@H]4[C@@H](CCP(=O)(O)O)[C@@H]4C3)ncnc2[nH]1` the Tmax [1] was 45 min, the half-life [2] was 60.6 min and the clearance [3] was 21.6 mL/min/kg. The concentration at 4 h [4] was 0.04 µM, the concentration at 1 h [5] was 26 µM and the Cmax [6] was 352 ng/mL. For the same compound, the half-life [7] was 33.6 min, the AUC(0-t) at 24 h [8] was 4390 ng·h/mL and the concentration at 0.5 h [9] was 112 µM. For the same compound, the MRT inf [10] was 18.6 min, the AUC(0-t) at 24 h [11] was 932 ng·h/mL and the Vd [12] was 0.373 L/kg. For the same compound, the concentration at 2 h [13] was 1.5 µM, the AUC(0-inf) [14] was 4400 ng·h/mL and the AUC(0-inf) [15] was 965 ng·h/mL. The MRT inf [16] was 156 min.

From ChEMBL document CHEMBL5518208 (J Med Chem, 2024)
